Measurements reported in the supplement of paper PMC10307832.

Columns and labels:
Assay in all cases: relative viability (nuclei count vs DMSO), 5 days (fraction); higher = more cells survive
Entinostat + Foretinib = compound: Nc1ccccc1NC(=O)c1ccc(CNC(=O)OCc2cccnc2)cc1 [Entinostat] + COc1cc2c(Oc3ccc(NC(=O)C4(C(=O)Nc5ccc(F)cc5)CC4)cc3F)ccnc2cc1OCCCN1CCOCC1 [Foretinib] (partner 0.25 µM)
Summary of the method: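 Lung cancer cell lines, seeded in 1536-well plates, were treated the following day by pin tool with a single drug or with five library-drug doses (not always all listed) in √10 steps on top of a fixed anchor-drug dose. Cells were fixed and nuclei stained in one step after 5 days, and nuclei were counted. Relative viability is the nuclei count for treated wells divided by that for vehicle wells, reported as medians of duplicate plates.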

[1] = compound: C1COCCN1C2=NC(=NC3=C2OC4=C3C=CC=N4)C5=CC(=CC=C5)NC(=O)C6=CN=C(C=C6)N
Summary of the method: (§1)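 In 1536-well plates, lung cancer cell lines rested overnight at 37 °C before five library-drug doses (not always all listed), √10 apart, were pinned onto vehicle-anchored plates. Nuclei were counted with MetaXpress from 4× Hoechst images taken after 5 days without medium change. Viability compares treated-well with vehicle-well nuclei as a median over plates, and plates needed control CV below 25% plus at least one doubling to pass.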

SGI-1776 = compound: CN1CCC(CNc2ccc3ncc(-c4cccc(OC(F)(F)F)c4)n3n2)CC1 [SGI-1776]
Summary of the method: as §1

Entinostat = compound: Nc1ccccc1NC(=O)c1ccc(CNC(=O)OCc2cccnc2)cc1 [Entinostat]
Summary of the method: as §1

Cell Line	relative viability (Entinostat + Foretinib; first compound 0.02 µM)	relative viability (Entinostat + Foretinib; first compound 0.06325 µM)	relative viability (Entinostat + Foretinib; first compound 0.2 µM)	relative viability (Entinostat + Foretinib; first compound 0.6325 µM)	relative viability (Entinostat + Foretinib; first compound 2 µM)	relative viability ([1]; 0.02 µM)	relative viability ([1]; 0.06325 µM)	relative viability ([1]; 0.2 µM)	relative viability ([1]; 0.6325 µM)	relative viability ([1]; 2 µM)	relative viability (SGI-1776; 0.08 µM)	relative viability (SGI-1776; 0.8 µM)	relative viability (SGI-1776; 2.53 µM)	relative viability (SGI-1776; 8 µM)	relative viability (Entinostat; 0.02 µM)	relative viability (Entinostat; 0.06325 µM)	relative viability (Entinostat; 0.2 µM)	relative viability (Entinostat; 0.6325 µM)	relative viability (Entinostat; 2 µM)
NCI-H1437	0.992	0.804	0.456	0.352	0.261	0.978	1	0.957	0.995	0.56	1.02	1.04	0.972	0.887	0.952	0.652	0.476	0.34	0.237
EKVX	0.879	0.996	0.863	0.572	0.409	1.02	1.07	0.963	1.01	0.825	1.12	1.1	0.989	0.895	1.02	1.11	0.894	0.686	0.444
NCI-H460	0.967	0.954	0.699	0.193	0.0625	1.05	1.09	0.974	1.03	0.477	1.01	0.994	0.988	0.947	1.02	0.986	0.842	0.307	0.0693
NCI-H1993	0.891	0.686	0.664	0.618	0.637	0.981	0.953	0.797	0.946	0.736	0.926	1.04	0.924	0.733	0.986	1.02	0.899	0.805	0.645
HCC-78	0.559	0.479	0.39	0.297	0.264	0.935	1.06	0.966	0.892	0.832	1.09	1.04	0.975	0.866	0.991	1.09	0.65	0.467	0.343
NCI-H2087	1.18	1.04	0.89	0.352	0.256	1.06	1.22	1.06	0.956	0.65	1.2	1.08	0.995	0.956	1.02	0.983	0.981	0.49	0.345
H3255	0.889	0.89	0.639	0.567	0.381	0.944	0.956	0.945	0.951	0.8	1.07	1.04	1.04	0.829	0.98	0.915	0.764	0.535	0.369
NCI-H2126	1.12	1.06	1.05	0.572	0.415	0.985	0.981	1.01	1.01	0.745	0.967	1.06	0.983	0.91	1.04	1.06	0.951	0.618	0.503
LCLC-103H	0.802	0.66	0.612	0.666	0.384	0.913	1.06	1.07	0.978	0.815	1.02	0.998	0.964	0.924	1.03	1.06	0.942	0.721	0.454
RERF-LC-KJ	0.853	0.856	0.84	0.516	0.285	1.01	1.05	0.973	0.928	0.743	1.03	1	0.957	0.843	0.952	0.986	0.922	0.631	0.297
EBC-1	0.0998	0.0994	0.101	0.0814	0.0684	0.911	1.16	0.936	0.964	0.576	1.04	0.952	0.971	0.67	1.06	1.02	0.865	0.306	0.165
HCC-15	0.984	0.886	0.802	0.592	0.331	1.03	1.09	0.971	0.966	0.75	1.04	1.1	0.989	0.833	0.939	0.962	0.899	0.457	0.333
NCI-H1650	1.08	1.06	1.11	0.681	0.57	0.865	1.01	0.8	0.896	0.618	0.945	0.879	0.84	0.442	0.999	0.929	0.964	0.635	0.334
COR-L 105	1.19	0.997	1.14	0.677	0.548	0.868	0.717	0.751	0.695	0.591	1.09	1.01	0.949	0.722	0.947	1.14	1.06	0.747	0.371
NCI-H596	0.851	0.727	0.913	0.698	0.655	0.993	1.11	0.944	0.948	0.832	0.943	1.11	0.869	0.731	1.03	0.937	0.975	0.854	0.588
LXF-289	1.01	0.916	0.88	0.825	0.59	1.06	1.03	1.07	0.995	0.8	1.01	1.05	1.05	0.959	1	0.978	0.952	0.711	0.63
NCI-H1703	0.322	0.346	0.49	0.812	0.688	0.805	0.975	0.76	0.685	0.505	0.909	0.796	0.588	0.218	1.05	1.3	1.33	1.03	0.646
